The term Hill slope denotes a measure of the steepness of the concentration-response curve. What is called solubility is the dissolved amount per volume that the medium holds.

Data set [1] addresses T1, human ecto-5′-NT (Homo sapiens, UniProt P21589).
T1 construct: purchased OriGene Technologies, Inc (Rockville, MD, USA)
T1 sequence (P21589 27-574): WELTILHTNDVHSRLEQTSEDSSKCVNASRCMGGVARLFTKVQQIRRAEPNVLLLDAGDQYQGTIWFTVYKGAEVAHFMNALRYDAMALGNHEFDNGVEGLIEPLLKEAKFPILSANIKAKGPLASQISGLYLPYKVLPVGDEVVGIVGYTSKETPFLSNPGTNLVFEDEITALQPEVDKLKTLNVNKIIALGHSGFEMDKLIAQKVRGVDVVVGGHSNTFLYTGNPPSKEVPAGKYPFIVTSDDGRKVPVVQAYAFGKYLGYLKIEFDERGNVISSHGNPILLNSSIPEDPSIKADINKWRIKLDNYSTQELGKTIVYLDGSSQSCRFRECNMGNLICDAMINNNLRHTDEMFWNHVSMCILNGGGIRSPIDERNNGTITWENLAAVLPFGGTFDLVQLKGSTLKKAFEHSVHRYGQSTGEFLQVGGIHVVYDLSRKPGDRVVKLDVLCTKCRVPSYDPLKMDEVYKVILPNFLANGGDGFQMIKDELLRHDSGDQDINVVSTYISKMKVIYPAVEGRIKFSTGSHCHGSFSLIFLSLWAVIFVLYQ
The experiment in a line: Enzyme inhibition assay (without Triton X-100), malachite green method. The format is biochemical. The following applies: human ecto-5′-NT 3.6 nM; for Hill slope: concentration-inhibition curve, without Triton X-100; for IC50: AMP 500 µM, without Triton X-100, HEPES pH 7.4. The protocol:
(§1) Enzyme inhibition assays (without Triton X-100). Following procedures described in the literature, with some modifications, all assays were carried out in a reaction mixture containing HEPES buffer (10 mM; pH = 7.4), MgCl2 (2 mM), CaCl2 (1 mM), human ecto-5′-NT (3.6 nM), AMP (500 µM) as substrate and variable concentration of each tested compound (from 0 to 500 µM for A and from 0 to 100 µM for B, C and D). Stock solutions of each compound were prepared in DMSO. The final concentration of DMSO in all samples/assays/experiments was 1.0% (v/v). Results were controlled for the effect of DMSO on enzymatic activity. After incubation for 10 min at 37.0 ± 0.2 °C, the reactions were stopped by heating the system for 5 min at 99.0 ± 0.2 °C. Inorganic phosphate concentrations were quantified spectrophotometrically (at λ = 630 nm), using the malachite green method, as described in the literature. Each experiment was done in triplicate. A four-parameter logistic non-linear regression model was used to fit the experimental data, using GraphPad Prism 7.0 (GraphPad, San Diego, CA, USA). From the corresponding fitted curves, we obtained the IC50 values, except when the minimum plateau value from the dose-response curve was far from zero. For such curves, IC50 ranges were estimated based on the inhibition (%) achieved at the maximum tested concentration.

Data set [2] has as its target T1, human ecto-5′-NT. The experiment in a line: Non-ionic detergent-sensitivity evaluation: enzyme inhibition assay with 0.01% (v/v) Triton X-100. The format is biochemical. The following applies: human ecto-5′-NT 3.6 nM, AMP 500 µM, read-out: IC50 in the presence of 0.01% (v/v) Triton X-100. As for the experimental part: as §1
(i) Non-ionic detergent-sensitivity evaluation: For each compound (A, B, C and D), enzyme inhibition assays were done, similarly as described above, using however Triton X-100 (a non-ionic detergent) at a final concentration of 0.01% (v/v) in the reaction mixture.

The target in data set [3] is T1, human ecto-5′-NT. The experiment in a line: Enzyme concentration sensitivity evaluation: enzyme inhibition assay at 36 nM enzyme. The format is biochemical. The following applies: human ecto-5′-NT 36 nM (10-fold increase), AMP 500 µM. The protocol: as §1
(ii) Enzyme concentration sensitivity evaluation: For each compound (A, B, C and D), enzyme inhibition assays were done, similarly as described above, but using human ecto-5′-NT at 36 nM (increased by 10-fold).

Data set [4] in a line: Turbidimetric solubility assay. The data set is classed as physicochemical. The following applies: HEPES buffer with MgCl2 and CaCl2, aqueous buffer, kinetic from dmso stock; HEPES buffer 10 mM pH 7.4, MgCl2 2 mM, CaCl2 1 mM, 1.0% (v/v) DMSO; turbidity at 400 nm; read-out: Estimated Solubility. As for the experimental part:
The final DMSO concentration in each sample was 1.0% (v/v). Increased turbidity (light scattering) was measured at 400 nm, since all compounds have absorbance peaks below this wavelength. Each sample was prepared and measured in triplicate. All measurements were done using a Hitachi U-2010 spectrophotometer.

The nature of data set [5]: Turbidity at 400 nm as a function of time. The format is physicochemical. The following applies: A 500 µM, B 100 µM, D 250 µM; HEPES buffer pH 7.4, 1.0% (v/v) DMSO; precipitates seen after 60 min. The protocol:
Additionally, turbidity at 400 nm as a function of time was followed for compounds A–D (Figure 6a). The concentration of each compound in these assays was near to the maximum that could be obtained, so that DMSO concentration was kept at 1.0% (v/v) in the assay buffer. […] In fact, after 60 min, precipitates at the bottom of the cuvettes were clearly observed by visual inspection (data not shown).
Figure 6 (a) Turbidity at 400 nm as a function of time measured for compounds A, B, C and D (at 500 µM, 100 µM, 80 µM and 250 µM, respectively). Each solution was prepared in HEPES buffer (10 mM), containing MgCl2 (2 mM) and CaCl2 (1 mM), pH = 7.4. Final concentration of DMSO in each sample was 1.0% (v/v); (b) Mean diameter (D) values as a function of time for compound C (80 µM) as determined by DLS. A solution of C was prepared in HEPES buffer (10 mM), containing MgCl2 (2 mM) and CaCl2 (1 mM), pH = 7.4. Final concentration of DMSO in each sample was 1.0% (v/v).
Turbidimetric assays were done using a Hitachi U-2010 spectrophotometer (Hitachi, Chiyoda, Tokyo, Japan). DLS analysis was done using a Zeta Plus Zeta-Potential Analyzer (Brookshaven Instruments Corporation, Hotsville, NY, USA) equipped with a 570 nm laser for dynamic light scattering at 90°. For enzymatic assays, absorbance measurements were done using a FlexStation 3 Multi-Mode Microplate Reader (Molecular Devices, LLC, San Jose, CA, USA).

The nature of data set [6]: Dynamic light scattering (DLS), aggregation kinetics. The format is physicochemical. The following applies: 80 µM, HEPES buffer pH 7.4, 1.0% (v/v) DMSO. The protocol: (iv) Dynamic light scattering (DLS): Particle size (mean zeta-average diameter D) for compound C was determined using a Zeta Plus Zeta-Potential Analyzer (Brookshaven Instruments Corporation, Hotsville, NY, USA) equipped with a 570 nm laser for dynamic light scattering at 90° [63]. Solutions of Compound C (80 µM) were prepared in HEPES buffer (10 mM), pH = 7.4. The final concentration of DMSO in each sample was 1.0% (v/v).

≈ marks a conversion by molar mass, not a printed value.

In turn, `O=C(Nc1nc2ccc(F)cc2s1)c1cc(-c2ccccc2O)n[nH]1` [B, N-(6-fluoro-1,3-benzothiazol-2-yl)-3-(2-hydroxyphenyl)-1H-pyrazole-5-carboxamide] had a Hill slope at human ecto-5′-NT [1] of −2.90. Further, the values for the IC50 against human ecto-5′-NT [1], at human ecto-5′-NT [2] and against human ecto-5′-NT [3] were 1.9 ± 1 µM, 2.3 ± 1.2 µM and above 36 µM, respectively. The solubility in data set [4] is 8.8 µM (≈ 3.12 µg/mL). Further, in data set [5], the “Turbidity at 400 nm as a function of time” value (from here on “Turbidity at 400 nm”) is “a decrease in turbidity is observed as a function of time”.

`Nc1ncnc2c1ncn2[C@@H]1O[C@H](COP(=O)(O)OP(=O)(O)O)[C@@H](O)[C@H]1O` [ADP, adenosine diphosphate, reference compound]: the IC50 against human ecto-5′-NT [1] turned out to be 29.7 ± 1.2 µM; at human ecto-5′-NT [2] it was 31.7 ± 1.2 µM; against human ecto-5′-NT [3] it was 27.2 ± 1.1 µM.

On human ecto-5′-NT [1], `O=C(COC(=O)c1n[nH]c2ccccc12)Nc1c(F)cccc1F` [Compound A, [(2,6-difluorophenyl)carbamoyl]methyl 1H-indazole-3-carboxylate] had a Hill slope of −2.75 and an IC50 of 82.9 ± 1.1 µM. Moreover, the IC50 on human ecto-5′-NT [2] was above 500 µM. In data set [4], the solubility was 79.1 µM (≈ 26.2 µg/mL). Besides, the “Turbidity at 400 nm” value in data set [5] was “a decrease in turbidity is observed as a function of time”.

`CS(=O)(=O)c1ccc2nc(NC(=O)c3cc(-c4ccccc4O)[nH]n3)sc2c1` [Compound D, 5-(2-hydroxyphenyl)-N-(6-methanesulfonyl-1,3-benzothiazol-2-yl)-1H-pyrazole-3-carboxamide]: the IC50 is 2.2 ± 1.2 µM at human ecto-5′-NT [1], above 36 µM on human ecto-5′-NT [2] and above 36 µM on human ecto-5′-NT [3]. Moreover, the solubility in data set [4] was below 0.5 µM. Besides, in data set [5], the “Turbidity at 400 nm” value is recorded as “a decrease in turbidity is observed as a function of time”.

On human ecto-5′-NT [1], `CSc1nnc(NC(=O)c2cc(-c3cc(C)cc(C)c3O)n[nH]2)s1` [Compound C, 3-(2-hydroxy-3,5-dimethylphenyl)-N-[5-(methylsulfanyl)-1,3,4-thiadiazol-2-yl]-1H-pyrazole-5-carboxamide] registered a Hill slope of −3.19 and an IC50 of 16.3 ± 1.1 µM. The IC50 on human ecto-5′-NT [2] was above 100 µM. Further, the solubility in data set [4] was 11.7 µM (≈ 4.23 µg/mL). For the same compound, in data set [6], the “Aggregate particle size (mean diameter) as a function of time by DLS” value is recorded as “aggregate particle size slowly increased with time”.
